Assay results taken from patent publication US9637490B2, “Antifungal 5,6-dihydro-4-[(difluoroethyl)phenyl]-4H-pyrrolo[1,2-α][1,4]benzodiazepine and 4-(difluoroethyl)phenyl-6H-pyrrolo[1,2-α][1,4]benzodiazepine derivatives” (Janssen Pharmaceutica NV, priority 2010, dated 2017).

Assays:
[1] = tested on: Sporothrix schenkii B62482; assay: Antifungal activity in vitro (resazurin susceptibility screen), Inf. A; format: cell-based; conditions: Sporothrix, B62482, Sporothrix schenkii B62482; 27 °C, 4 days, resa time 24 hours
Protocol: (§1) The standard susceptibility screen was performed in 96-well plates (U-bottom, Greiner Bio-One). Serial dilutions (2-fold or 4-fold) of 20 mM compound stock solutions were made in 100% DMSO, followed by an intermediate dilution step in water. These serial dilutions (10 μl) were then spotted onto test-plates that could be stored in the dark at 4° C. for a maximum period of 2 weeks. An adequate broad dose-range was included with 64 μM as the highest in-test concentration. The culture medium RPMI-1640 was supplemented with L-glutamine, 2% glucose and buffered with 3-(N-morpholino)-propanesulfonic acid (MOPS) at pH 7.0±0.1. The different fungal species/isolates (Table 3a) were cryopreserved and 1/1000 diluted in medium just prior to use. A standard inoculum of 200 μl containing 10^3 colony-forming unit (cfu) was then added to each well. A positive control (100% growth=fungal culture without antifungal) and a negative control (0% growth=RPMI-MOPS medium) were included on each plate. Optimal incubation time and temperature were dependent on the fungal species and vary from 24 h for yeasts (37° C.) to one week or more for dermatophytes (27° C.). Inhibition of fungal growth was measured after adding 10 μl of 0.005% (w/v) resazurin (Sigma Aldrich) to each well, based on the principle that living cells convert the non-fluorescent blue resazurin into the pink and fluorescent resorufin, allowing fluorimetric reading (λhd ex 550 nm and μem 590 nm) after an additional incubation period (‘resa’ time mentioned in Table 3a). [table]

Microsporum canis B68128 = assay: Antifungal activity in vitro (resazurin susceptibility screen), Inf. B; format: cell-based; conditions: Microsporum canis, B68128, Microsporum canis B68128; 27 °C, 9 days, resa time 24 hours
Protocol: as §1

[2] = tested on: Trichophyton rubrum B68183; assay: Antifungal activity in vitro (resazurin susceptibility screen), Inf. C; format: cell-based; conditions: Trichophyton rubrum, B68183, Trichophyton rubrum B68183; 27 °C, 7 days, resa time 24 hours
Protocol: as §1

[3] = tested on: Candida parapsilosis B66126; assay: Antifungal activity in vitro (resazurin susceptibility screen), Inf. D; format: cell-based; conditions: Lodderomyces parapsilosis, B66126, Candida parapsilosis B66126; 37 °C, 24 hours, resa time 4 hours
Protocol: as §1

[4] = tested on: Aspergillus fumigatus B42928; assay: Antifungal activity in vitro (resazurin susceptibility screen), Inf. E; format: cell-based; conditions: Aspergillus fumigatus, B42928, Aspergillus fumigatus B42928; 27 °C, 48 hours, resa time 17 hours
Protocol: as §1

[5] = tested on: Cryptococcus neoformans B66663; assay: Antifungal activity in vitro (resazurin susceptibility screen), Inf. F; format: cell-based; conditions: Cryptococcus neoformans, B66663, Cryptococcus neoformans B66663; 37 °C, 24 hours, resa time 4 hours
Protocol: as §1

[6] = tested on: Trichophyton mentagrophytes B70554; assay: Antifungal activity in vitro (resazurin susceptibility screen), Inf. G; format: cell-based; conditions: Trichophyton mentagrophytes, B70554, Trichophyton mentagrophytes B70554; 27 °C, 7 days, resa time 24 hours
Protocol: as §1

[7] = tested on: Scedosporium apiospermum IHEM3817; assay: Antifungal activity in vitro (resazurin susceptibility screen), Inf. H; format: cell-based; conditions: Scedosporium apiospermum, IHEM3817, Scedosporium apiospermum IHEM3817; 37 °C, 48 hours, resa time 17 hours
Protocol: as §1

[8] = tested on: Scedosporium prolificans IHEM21157; assay: Antifungal activity in vitro (resazurin susceptibility screen), Inf. I; format: cell-based; conditions: Lomentospora prolificans, 37 °C, 48 hours, resa time 17 hours
Protocol: as §1

Rhizopus oryzae IHEM5223 = assay: Antifungal activity in vitro (resazurin susceptibility screen), Inf. J; format: cell-based; conditions: Rhizopus arrhizus, 37 °C, 24 hours, resa time 6 hours
Protocol: as §1

[9] = tested on: Rhizomucor miehei IHEM13391; assay: Antifungal activity in vitro (resazurin susceptibility screen), Inf. K; format: cell-based; conditions: Rhizomucor miehei, IHEM13391, Rhizomucor miehei IHEM13391; 37 °C, 48 hours, resa time 17 hours
Protocol: as §1

[10] = tested on: Mucor circinelloides IHEM21105; assay: Antifungal activity in vitro (resazurin susceptibility screen), Inf. L; format: cell-based; conditions: 27 °C, 48 hours, resa time 17 hours
Protocol: as §1

Row | Compound | IC50 [1] [nM] | IC50 (Microsporum canis B68128) [nM] | IC50 [2] [nM] | IC50 [3] [nM] | IC50 [4] [nM] | IC50 [5] [nM] | IC50 [6] [nM] | IC50 [7] [nM] | IC50 [8] [nM] | IC50 (Rhizopus oryzae IHEM5223) [nM] | IC50 [9] [nM] | IC50 [10] [nM] | melting point [°C]
1 | Cc1ccc(Cl)c2c1CN=C(c1ccc(C(C)(F)F)cc1)c1cccn1-2 [Compound 28, 10-chloro-4-[4-(1,1-difluoroethyl)phenyl]-7-methyl-6H-pyrrolo[1,2-a][1,4]-benzodiazepine] | 28200 | 14100 | 7410 | 45700 | ≥ 64600 | 16600 | 26900 | 708 | 2290 | > 64600 | 41700 | > 64600 | 139.3 to 141.2
2 | CC(F)(F)c1ccc(C2=NCc3c(Cl)cccc3-n3cccc32)cc1F [Compound 29, 7-chloro-4-[4-(1,1-difluoroethyl)-3-fluorophenyl]-6H-pyrrolo[1,2-a][1,4]benzodiazepine] | > 64600 | 110 | 85.1 | > 64600 | 501 | > 64600 | 191 | > 64600 | > 64600 | > 64600 | > 64600 | > 64600 | 186.3 to 186.6
3 | CC(F)(F)c1ccc(C2=NCc3c(Cl)cc(F)cc3-n3cccc32)cc1F [Compound 31, 7-chloro-4-[4-(1,1-difluoroethyl)-3-fluorophenyl]-9-fluoro-6H-pyrrolo[1,2-a][1,4]-benzodiazepine] | 2340 | 437 | 468 | 3470 | 501 | 295 | 1260 | 10500 | 8710 | > 64600 | > 64600 | > 64600 | 162.5 to 164.8
4 | CC(F)(F)c1ccc(C2=NCc3c(F)cc(Cl)cc3-n3cccc32)cc1 [Compound 32, 9-chloro-4-[4-(1,1-difluoroethyl)phenyl]-7-fluoro-6H-pyrrolo[1,2-a][1,4]benzodiazepine] | 6170 | 1660 | 1660 | 2750 | 2000 | 1290 | 1660 | > 64600 | > 64600 | > 64600 | > 64600 | > 64600 | 145.3 to 147.4
5 | CC(F)(F)c1ccc(C2=NCc3c(F)cccc3-n3cccc32)cc1F [Compound 30, 4-[4-(1,1-difluoroethyl)-3-fluorophenyl]-7-fluoro-6H-pyrrolo[1,2-a][1,4]benzodiazepine] | > 64600 | 468 | 162 | 7760 | 501 | 1410 | 363 | 8910 | 4570 | > 64600 | 12300 | > 64600 | 170.8 to 171.5
6 | CC(F)(F)c1ccc(C2=NCc3c(F)cc(F)cc3-n3cccc32)cc1F [Compound 33, 4-[4-(1,1-difluoroethyl)-3-fluorophenyl]-7,9-difluoro-6H-pyrrolo[1,2-a][1,4]-benzodiazepine] | 9330 | 1950 | 724 | 13500 | 1910 | 2630 | 2140 | 646 | 10500 | > 64600 | > 64600 | > 64600 | 158.2 to 161.3
7 | CC(F)(F)c1cc(C2=NCc3c(F)cc(F)cc3-n3cccc32)ccc1F [Compound 23, 4-[3-(1,1-difluoroethyl)-4-fluorophenyl]-7,9-difluoro-6H-pyrrolo[1,2-a][1,4]-benzodiazepine] | 9550 | 417 | 129 | 3630 | 537 | > 64600 | 794 | 182 | 100 | > 64600 | > 64600 | > 64600 | 143.2 to 144.3
8 | CC(F)(F)c1cc(C2=NCc3c(Cl)cc(F)cc3-n3cccc32)ccc1F [Compound 26, 7-chloro-4-[3-(1,1-difluoroethyl)-4-fluorophenyl]-9-fluoro-6H-pyrrolo[1,2-a][1,4]-benzodiazepine] | 10200 | 468 | 468 | 3800 | 589 | > 64600 | 1200 | 158 | 191 | > 64600 | 13500 | > 64600 | 84.9 to 85.9
9 | CC(F)(F)c1cc(C2=NCc3c(Cl)cc(Cl)cc3-n3cccc32)ccc1F [Compound 25, 7,9-dichloro-4-[3-(1,1-difluoroethyl)-4-fluorophenyl]-6H-pyrrolo[1,2-a][1,4]-benzodiazepine] | 14100 | 1580 | 1260 | > 64600 | 1020 | > 64600 | 2190 | 407 | 501 | > 64600 | > 64600 | > 64600 | 124.2 to 125.4
10 | Cc1cc(Cl)cc2c1CN=C(c1ccc(C(C)(F)F)cc1)c1cccn1-2 [Compound 16, 9-chloro-4-[4-(1,1-difluoroethyl)phenyl]-7-methyl-6H-pyrrolo[1,2-a][1,4]-benzodiazepine] | 3800 | 2000 | 617 | 10700 | 1700 | 724 | 1660 | 10200 | 1200 | > 64600 | > 64600 | > 64600 | 89.6 to 91.2
